Laboratory results as given in patent publication US20060093628A1, “Protein aggregate magnesium-ammonium phospholinoleate-palmitoleate anhydride immonomodulator, its production process and formulation” (priority 2004, published 2006).

Tests used:
[1] = tested on: parvovirus and distemper virus; assay: Treatment of dogs carrying parvovirus and distemper virus; format: in vivo
Text: a) Antiviral properties through immune response modulation.

[2] = Toxicity in Wistar rats, 90 days; format: in vivo; conditions: doses up to 100 mg/kg
Text: (§1) e) In vivo toxicologic properties.

Walker 256 tumoral cells [3] = assay: Walker 256 tumor in female Wistar rats; format: in vivo; conditions: daily subcutaneous doses of 0.5 mg/kg
plasmacytoma = assay: Subcutaneously inoculated plasmacytoma in Balb/c mice; format: in vivo; conditions: 5.0 mg/kg intraperitoneal, 3 doses per week, 7 weeks
Text: (§2) b) Antitumoral properties through immune response modulation.

[4] = rat, in vivo, ip, 750 mg/kg
Experimental: The bioavailability of the compound of the present invention was evaluated in Wistar rats by administering a single intraperitoneal dose of 750 mg/kg.

[5] = tested on: spontaneous mammary carcinoma; assay: Transplanted spontaneous mammary carcinoma in WAB/Not mice; format: in vivo; conditions: 5.0 mg/kg intraperitoneal, 3 doses per week, 7 weeks
Text: as §2

[6] = Immunotoxic properties in tufted capuchin monkey; design: species or system tufted capuchin monkey (Cebus apella); conditions: in vivo
Experimental: f) Immunotoxic properties. […] The following organs were analyzed: bone marrow, spleen, lymph nodes, tonsils, and renal gland e Peyer's patch.
The spleen presented an increase of secondary follicles in the white pulp.
However, these cell alterations, found in the anatomopathological examination of the spleen from animals treated with the compound of the present invention, cannot be considered pathological in character; rather, they are due to immune system modulation caused by the use of the compound of the present invention.

cytokines (IL-2, IFN) = assay: Cytokines in spleen cell cultures from mice infected with L. monocytogenes; format: in vivo, Balb/c mice; conditions: pre-treatment with 5.0 mg/kg; culture of spleen cells
Experimental: Levels of the same cytokines found in Balb/c mice infected with L. monocytogenes and subjected to pre-treatment with 5.0 mg/kg of the compound of the present invention supplied additional information about its biological activity. The increase in production of IL-2 e IFN- by the culture of spleen cells from these animals indicate a modulation of the inflammatory-like response, which is fundamental for eradication of the infection.

Ehrlich ascitic tumor = Ehrlich ascitic tumor in Balb/c mice; format: in vivo; conditions: 5.0 mg/kg subcutaneous for 7 days
Experimental: Treatment with doses of 5.0 mg/kg of the compound of the present invention, subcutaneously administered for a period of 7 days to Balb/c mice which had been intraperitoneally inoculated with Ehrlich ascitic tumor inhibited 50% of the tumoral growth and increased by 50% the survival of the animals.

Walker 256 tumoral cells [7] = assay: Walker 256 tumor in gamma-irradiated immunodepressed Wistar rats; format: in vivo; conditions: rats exposed to 4 Gy gamma radiation, subcutaneous administration
Text: c) Immunomodulatory properties.

[8] = tested on: granulocyte-macrophage precursor cells in the bone marrow; assay: In vitro growth and differentiation of bone marrow granulocyte-macrophage precursor cells; format: cell-based; conditions: bone marrow from normal donor Balb/c mice
[9] = tested on: cytokines (IL-2, IFN, IL-4, IL-10); assay: Cytokines in ConA-stimulated splenic cell cultures from mice with Ehrlich ascitic tumor; format: in vivo, Balb/c mice; conditions: 5.0 mg/kg for 7 days
Experimental: (§3) Treatment of Balb/c mice, inoculated with Ehrlich ascitic tumor, with 5.0 mg/kg of the compound of the present invention for a period of 7 days was also able to modulate the functional ability of mature immunocompetent cells, supplying additional evidence about the action mechanisms of the compound. This treatment protocol stimulated the proliferative ability of lymphocytes and the cytotoxicity mediated by natural killer (NK) cells.

[10] = tested on: 53 tumor cell cultures representing 8 distinct tumor types and leukemia
Text: Cytotoxicity of the compound of the present invention was studied in the range of 10^−4 to 10^−8 M in 53 tumor cell cultures representing 8 distinct tumor types (lung, colon, central nervous system, melanoma, ovary, kidney, prostate and mammary) and leukemia.

[11] = Toxicity in mice, single doses; format: in vivo
Text: as §1

[12] = tested on: granulocyte-macrophage precursor cells (CFU-GM); assay: Granulocyte-macrophage precursor cells (CFU-GM) in mice with Ehrlich ascitic tumor; format: in vivo, Balb/c mice
[13] = Toxicity in tufted capuchin monkey, 30 days; format: in vivo, tufted capuchin monkey (Cebus apella); conditions: doses up to 30 mg/kg
Text: as §1

Lysteria monocytogenes [14] = assay: In vitro antibacterial activity; format: cell-based
[15] = tested on: lymphocytes and natural killer (NK) cells; assay: Functional ability of immunocompetent cells in mice with Ehrlich ascitic tumor; format: in vivo, Balb/c mice; conditions: 5.0 mg/kg for 7 days
Experimental: as §3

Lysteria monocytogenes [16] = assay: Lethal Lysteria monocytogenes infection in Balb/c mice; format: in vivo
[17] = splenic cells stimulated by ConA

For “protein aggregate of ammonium and magnesium phospholinoleate-palmitoleate anhydride [compound of the present invention]”, the “white blood cell count” value ([1]; blood of treated dogs vs infected controls treated with saline only) was “significant increase”, the recovery rate ([1]; dogs carrying parvovirus and distemper virus) was “higher recovery rate” and the toxic effects [2] was “No toxic effects”. The “animals with tumoral regression” value (Walker 256 tumoral cells [3]) was 50%, the increase in survival (plasmacytoma) was 50% and the tumoral growth rate (plasmacytoma) was “significant decrease”. The “plasma t1/2” value [4] was “about 2 h”, the increase in survival [5] was 50% and the tumoral growth rate [5] was “significant decrease”. The “granulocytic series in the bone marrow” value [6] was “slight activation”, the hematocrit and hemoglobin [6] was “minor decrease” and the immunotoxic properties [6] was “No immunotoxic properties”. The lymphocyte population [6] was “small increase”, the “red pulp of the spleen, anatomopathological examination” value [6] was “Erytrophagocytosis was visible” and the “secondary follicles in the white pulp of the spleen” value [6] was “increase”. The “total leucocytes, particularly polymorphonuclear neutrophils” value [6] was “increase”, the “production of IFN-” value (cytokines (IL-2, IFN)) was “increase” and the “production of IL-2” value (cytokines (IL-2, IFN)) was “increase”. The increase in survival (Ehrlich ascitic tumor) was 50%, the “inhibition of tumoral growth” value (Ehrlich ascitic tumor) was 50% and the response to treatment (Walker 256 tumoral cells [7]) was “did not respond”. For the same substance, the “in vitro effects on growth and differentiation of granulocyte-macrophage precursor cells” value [8] was “did not present in vitro effects”, the “interleukin-4 (IL-4) levels” value [9] was “No alteration” and the “production of interleukin-10 (IL-10)” value ([9]; mice with tumors) was “significantly reduced”. The “gamma-interferon (IFN-)” value [9, 17] was “significant increase”, the “interleukin-2 (IL-2)” value [9, 17] was “significant increase” and the “cytotoxicity for tumor cells” value [10] was “did not display cytotoxicity”. For the same substance, the toxic effects ([11]; single doses up to 2000 mg/kg) was “No toxic effects”, the “hematological, biochemical, physiological and anatomopathological parameters” value ([11]; stated jointly for the mouse, monkey and rat studies, treated vs control animals) was “No significant variation” and the “CFU-GM count in the spleen and splenomegalia” value ([12]; 5.0 mg/kg for 7 days) was “significant reduction”. The myelopoiesis modulation ([12]; 5.0 mg/kg for 7 days before or after inoculation) was “particularly efficient”, the “number of granulocyte-macrophage precursor cells in the bone marrow (CFU-GM)” value ([12]; 0.5 to 5.0 mg/kg subcutaneous for 7 days) was “dose-dependent increase” and the toxic effects [13] was “No toxic effects”. The “in vitro antibacterial activity” value (Lysteria monocytogenes [14]) was “does not display in vitro antibacterial activity”, the “cytotoxicity mediated by natural killer (NK) cells” value [15] was “stimulated” and the “proliferative ability of lymphocytes” value [15] was “stimulated”. For the same substance, the “mice protected against lethal infection” value (Lysteria monocytogenes [16]; pre-treatment 0.5 mg/kg subcutaneous for 7 days) was 30%, the “mice protected against lethal infection” value (Lysteria monocytogenes [16]; pre-treatment 5.0 mg/kg subcutaneous for 7 days) was 40% and the myeloprotection (Lysteria monocytogenes [16]; pre-treatment subcutaneous for 7 days) was “promoted myeloprotection”.
